Results as given in article PMC12333015, “Profiling the Impact of mGlu7/Elfn1 Protein Interactions on the Pharmacology of mGlu7 Allosteric Modulators” (ACS Chemical Neuroscience, 2025).

Target: T1, mGlu7/Elfn1 (Rattus norvegicus, UniProt P35400)
T1 construct: expressed in transfected cells; host or cells: HEK293A mGlu7/GIRK cells cocultured with HEK293A polyclonal cells stably expressing Elfn1-Myc (pcDNA3)
Assay: Thallium flux assay, mGlu7/GIRK HEK293 cells cocultured with Elfn1-expressing cells
Type: cell-based, mouse Elfn1
Conditions: for EC50: L-AP4 pEC50 ± SEM, Elfn1, DMSO vehicle
Excerpt: We began our evaluation of mGlu7 ligands in the presence and absence of Elfn1 by using a coculture system as previously described , with several modifications (Figure ). Cells expressing rat mGlu7 and coexpressing G protein inwardly rectifying potassium (GIRK) channels 1 and 2 were cocultured with cells expressing either an empty pcDNA3 vector control or a plasmid containing Elfn1 in the pcDNA3 backbone. We then evaluated the activity of the orthosteric agonist L-AP4 and measured effects on maximal response and pEC50. All responses were normalized to the maximal effect of L-AP4 in the presence of the pcDNA3 control plasmid.
2 Assay design and workflow. (Left panel) Cells expressing rat mGlu7/GIRK (pink) were cocultured with pcDNA3 (blue) or Elfn1 (purple). […] (Right panel) The effect on the concentration–response curve in the presence (purple) or absence (blue) of Elfn1 can be seen by a change in efficacy, potency, and/or basal response.
HEK293A polyclonal cells stably expressing either Elfn1 or empty vector were passaged in media (Dulbecco’s modified Eagle medium (DMEM), supplemented with 10% fetal bovine serum (FBS), 20 mM N-(2-hydroxyethyl)-piperazine-N′-ethanesulfonic acid (HEPES), 1 mM Na pyruvate, 2 mM Glutamax, 0.1 mM nonessential amino acids, 1× antibiotic/antimycotic) under G418 (700 μg/mL) selection to maintain expression.
HEK293A cells stably expressing mouse Elfn1 or pcDNA3 were maintained in growth medium containing 90% Dulbecco’s Modified Eagle Media (DMEM), 10% fetal bovine serum (FBS), 100 units/mL penicillin/streptomycin, 20 mM HEPES, 1 mM sodium pyruvate, 2 mM L-glutamine, 1× nonessential amino acids, and 700 μg/mL G418 sulfate. HEK mGlu7/GIRK cells were maintained in a growth medium with 90% DMEM/F12, 10% dialyzed FBS, 100 units/mL penicillin/streptomycin, 20 mM HEPES, 1 mM sodium pyruvate, 2 mM L-glutamine, 1× nonessential amino acids, 700 μg/mL G418 sulfate, and 600 ng/mL puromycin. All cell culture reagents were purchased from Invitrogen (Carlsbad, CA).
Thallium flux assays were performed as previously described. A mixture of HEK293A mGlu7/GIRK cells and pcDNA3 or Elfn1-expressing HEK293A cells (5000/15,000 cells/20 μL/well for agonist and PAM experiments; 7500/15,000 cells/20 μL/well for NAM experiments) was seeded in 384-well, amine-coated assay plates (Greiner Bio-One, Monroe, NC). Cells were incubated overnight in a humidified 5% CO2 cell culture incubator at 37 °C. […] Following a 1 h incubation at room temperature, the dye loading solution was replaced with 20 μL/well assay buffer and the plates were loaded into a Hamamatsu FDSS 7000 (Bridgewater, NJ). Data were acquired at 1 Hz (excitation 470 ± 20 nm, emission 540 ± 30 nm) for 10 s, followed by the addition of 20 μL/well of 10 μM NAM/PAM/DMSO, followed by an additional 4 min of data collection. […] Thallium flux data were analyzed by first dividing each point in each wave by the first point in that wave and then subtracting the average of the vehicle control response. The slopes of these vehicle control-subtracted waves were calculated over ten data points beginning 2 s after thallium stimulus addition and fit to a three-parameter logistic equation in GraphPad Prism (La Jolla, CA). In most cases, the final data were normalized to the response of the mGlu7/pcDNA3 with vehicle and 5 mM L-AP4 unless otherwise noted. Potency (pEC50) and maximum responses (E max) induced by compounds were determined using a four-parameter logistical equation in Prism.

T1 sequence (P35400 35-915): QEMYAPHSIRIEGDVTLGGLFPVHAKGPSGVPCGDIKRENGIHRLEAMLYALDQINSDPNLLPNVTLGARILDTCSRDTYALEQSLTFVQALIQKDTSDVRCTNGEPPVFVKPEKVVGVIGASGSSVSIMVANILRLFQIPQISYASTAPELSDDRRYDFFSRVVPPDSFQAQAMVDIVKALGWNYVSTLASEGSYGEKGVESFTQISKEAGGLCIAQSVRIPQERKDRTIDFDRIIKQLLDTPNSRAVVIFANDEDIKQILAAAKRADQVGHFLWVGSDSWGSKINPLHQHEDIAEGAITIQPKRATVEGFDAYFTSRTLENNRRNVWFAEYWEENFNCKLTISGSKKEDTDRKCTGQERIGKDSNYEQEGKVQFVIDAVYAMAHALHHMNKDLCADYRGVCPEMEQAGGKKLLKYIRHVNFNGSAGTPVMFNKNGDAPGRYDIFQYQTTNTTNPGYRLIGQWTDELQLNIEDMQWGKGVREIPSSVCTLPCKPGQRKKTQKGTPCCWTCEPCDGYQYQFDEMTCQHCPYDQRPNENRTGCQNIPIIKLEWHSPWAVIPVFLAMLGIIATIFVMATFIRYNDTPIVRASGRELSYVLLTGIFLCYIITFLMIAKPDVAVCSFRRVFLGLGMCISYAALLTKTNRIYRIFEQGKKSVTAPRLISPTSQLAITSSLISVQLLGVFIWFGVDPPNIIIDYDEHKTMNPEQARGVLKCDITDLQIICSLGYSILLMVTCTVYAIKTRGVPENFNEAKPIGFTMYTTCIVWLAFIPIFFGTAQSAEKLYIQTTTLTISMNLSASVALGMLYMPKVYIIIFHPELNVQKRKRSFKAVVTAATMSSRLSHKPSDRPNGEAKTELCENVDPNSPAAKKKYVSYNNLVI
T1 sequence (Q8C8T7 26-828 partner): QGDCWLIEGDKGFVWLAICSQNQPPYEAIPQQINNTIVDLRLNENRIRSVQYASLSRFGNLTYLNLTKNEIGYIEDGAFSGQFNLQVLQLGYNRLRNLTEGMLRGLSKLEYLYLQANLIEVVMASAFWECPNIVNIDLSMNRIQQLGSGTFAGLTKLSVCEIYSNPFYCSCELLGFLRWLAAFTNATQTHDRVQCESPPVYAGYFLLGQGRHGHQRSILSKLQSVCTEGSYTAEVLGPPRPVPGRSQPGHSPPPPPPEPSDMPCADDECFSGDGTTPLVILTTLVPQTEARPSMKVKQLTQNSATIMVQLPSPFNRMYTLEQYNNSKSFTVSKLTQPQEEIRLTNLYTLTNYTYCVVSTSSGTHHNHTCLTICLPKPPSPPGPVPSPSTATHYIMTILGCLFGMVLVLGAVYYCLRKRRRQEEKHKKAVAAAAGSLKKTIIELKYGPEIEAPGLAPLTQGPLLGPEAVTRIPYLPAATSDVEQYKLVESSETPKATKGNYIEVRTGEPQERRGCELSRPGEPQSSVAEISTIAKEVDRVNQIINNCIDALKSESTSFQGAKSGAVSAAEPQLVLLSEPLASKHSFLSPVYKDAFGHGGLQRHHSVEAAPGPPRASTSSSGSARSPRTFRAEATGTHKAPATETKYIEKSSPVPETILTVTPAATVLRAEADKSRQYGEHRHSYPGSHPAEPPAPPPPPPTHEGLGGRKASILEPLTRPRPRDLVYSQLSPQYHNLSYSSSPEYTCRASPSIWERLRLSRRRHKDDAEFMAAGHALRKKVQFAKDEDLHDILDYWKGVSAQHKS

`N[C@@H](CCP(=O)(O)O)C(=O)O` [L-AP4, L-2-amino-4-phosphonobutyric acid, reference compound] was tested, and the EC50 (agonist alone (DMSO row of Table 2)) was 324 µM, the EC50 (agonist alone (DMSO row of Table S1)) was 200 µM and the “maximal response to L-AP4 with Elfn1 versus pcDNA3” value (eight experiments, p < 0.001) was “significantly reduced”. The “pEC50 of L-AP4 with Elfn1 versus pcDNA3” value (eight experiments, p < 0.01) was “significantly reduced”.
